According to US20240108580A1, “DECOQUINATE LIPOSOME, PREPARATION METHOD THEREFOR AND USE THEREOF” (CAS LAMVAC (GUANGZHOU) BIOMEDICAL TECHNOLOGY CO.,LTD., priority 2019, published 2024):
Like-named read-outs stand apart in the source and are kept apart here.

What was measured:
P. falciparum 3D7 = assay: In-vitro inhibition potency against Plasmodium falciparum, 72 hours, nucleic acid dye; format: cell-based
Experimental: (§1) The volume was filled up to 1 L with ultrapure water, the pH adjusted to 7.2, subjected to sterilized filtration by using a 0.22 μm filtration membrane, and stored at 4° C. to obtain a complete culture medium; the incomplete medium was composed of 10.43 g of 1640 dry powder (GIBCO, 31800022), 5.96 g of Hepes, 2 g of sodium bicarbonate, 0.292 g of L-glutamine, 3.96 g of glucose, […] of hypoxanthine and 2.5 mg of gentamicin, prepared by the same method as for the complete culture medium. • (2) Drugs and formulations: pure decoquinate was dissolved in DMSO as a stock solution, chloroquine was dissolved in PBS, and artemisinin was dissolved in DMSO and then diluted with PBS. […] Before the experiment, all the above dissolved drug solutions were then diluted to series of 10 gradient concentrations with the incomplete medium. • (3) Culture and assay method: Plasmodium falciparum was cultured in the complete culture medium, and human red blood cells (RBC) were preserved in the incomplete culture medium. […] The culture was incubated at 37° C. in 5% CO2 for 72 hours, then nucleic acid dye was added, and the […] measured in a microplate reader. The half-maximal inhibitory concentration (IC50) of drugs was calculated with Graph Pad software, that is, the concentration when the inhibition rate of antimalarial drugs to P. falciparum reached 50% was calculated.

P. falciparum Dd2 = assay: as above; format: cell-based
Experimental: as §1

[1] = cited from earlier work
[2] = 3D7, chloroquine-sensitive strain, liposome values are decoquinate concentrations, read-out: IC50 P. falciparum 3d7 Mean ± S.D.
[3] = DD2, multidrug-resistant (including chloroquine) strain, liposome values are decoquinate concentrations, read-out: IC50 P. falciparum Dd2 Mean ± S.D.

Row | SMILES | IC50 (P. falciparum 3D7; 3D7, read-out: IC50 P. falciparum 3d7 Mean ± S.D.) | IC50 (P. falciparum Dd2; DD2, read-out: IC50 P. falciparum Dd2 Mean ± S.D.) | IC50 (P. falciparum 3D7; [2]) | IC50 (P. falciparum Dd2; [3]) | Solubility in ethanol ([1]; ethanol) | Solubility in water ([1]; water)
1 | CCN(CC)CCCC(C)Nc1ccnc2cc(Cl)ccc12 (centres unmarked) [Chloroquine, chloroquine] | 23.75 ± 0.06 nM | 185 ± 16.2 nM | – | – | – | –
2 | CCCCCCCCCCOc1cc2c(O)c(C(=O)OCC)cnc2cc1OCC [Pure DQ, ethyl 6-decyloxy-7-ethoxy-4-hydroxyquinoline-3-carboxylate] | – | – | 1.63 ± 0.13 nM | 1.57 ± 0.49 nM | slightly soluble | practically insoluble
3 | C[C@@H]1CC[C@H]2[C@@H](C)C(=O)O[C@@H]3O[C@@]4(C)CC[C@@H]1[C@]32OO4 [Artemisinin, artemisinin] | – | – | 16.4 ± 5.8 nM | 18.5 ± 0.5 nM | – | –
